{"source": "patent US8940333B2", "about": "“Amphiphilic block copolymers and nanoparticles comprising the same” (priority 2005, dated 2015)", "key": {"[1]": {"system": "erythrocyte", "experiment": "Hemolysis test (ASTM F756)", "format": "cell-based"}, "[2]": {"system": "macrophage culture (RAW 264.7)", "experiment": "In vitro stealth test: reactive oxygen species (DCFDA to DCF) in macrophage culture, flow cytometer", "format": "cell-based", "conditions": "RAW 264.7, 1 μm PMA, 24-hour activation (positive control)"}}, "data": [{"smiles": "CC[C@@]1(O)C(=O)OCc2c1cc1n(c2=O)Cc2cc3ccccc3nc2-1", "note": "[Camptothecin]", "values": [{"measurement": "Hemolytic grade", "setting": "[1]", "result": "slight hemolysis"}, {"measurement": "Hemolytic index (%)", "setting": "[1]", "result": 5.84, "unit": "%"}]}, {"smiles": "CCCCCCCCCCCCCC(=O)O[C@@H]1[C@@H](C)[C@@]2(O)[C@@H](C=C(CO)C[C@]3(O)C(=O)C(C)=C[C@@H]23)[C@@H]2C(C)(C)[C@]12OC(C)=O", "note": "[PMA]", "values": [{"measurement": "mean fluorescent intensity of DCF", "setting": "[2]", "result": 20.13}]}]}
